# Laboratory results as given in patent publication US20110065769A1, “Transdermal delivery of ionizable drugs” (priority 2009, published 2011).
# Tests used:
# [1] = Rat skin flux enhancement, side by side diffusion cell; format: in vitro ADME; conditions: for Skin flux enhancement by 3% PerRx (in words): 3% PerRx vs control at pH 7.4; for Skin flux, control: control formulation without PerRx; for Skin flux, control / Flux enhancement (S.F. Control + 3% PerRx)/(S.F. control) / Skin flux, control + 3% PerRx: hairless rat skin; for Skin flux, control / Skin flux, control + 3% PerRx: donor suspension pH 7.4, 37° C.; for Flux enhancement (S.F. Control + 3% PerRx)/(S.F. control): ratio of skin flux with 3% PerRx to control, pH 7.4; for Skin flux, control + 3% PerRx: with 3% PerRx enhancer
# Description: […] The dorsal skin from a rat was excised and mounted on a side by side diffusion cell assembly with a contact area of 0.95 cm^2 and cell volume of 2.5 ml. The temperature of the diffusion cell was regulated at 37° C. The excised rat skin was clamped between the donor cell and the receiver with the dorsal stratum corneum facing the donor cell.
# The model drug molecules were suspended in physiological phosphate buffer solution, of pH 7.4. The sampling volume of 1.0 ml was removed at the time point and the sampling volume was replaced with a fresh volume of the buffer solution. Skin flux of the drugs was measured in the absence or presence of the enhancer N,N-dimethylamino isobutyric acid propylene glycol mono laureate (also known as dodecanoic acid 2-(3-dimethylamethyl-propionyloxy)-propylester, or PerRx™).
# [2] = Aqueous solubility with addition of 3% PerRx; format: physicochemical; conditions: 3% PerRx added to control formulation
# Source text: So in the present work, it is believed that at pH 7.4 addition of the acetic acid functional group into polar head position will affect tremendously the physical chemical properties of molecules. […] See the results table.
Structure (SMILES),Skin flux enhancement by 3% PerRx (in words) [1],"Skin flux, control [1] [μg/cm^2-hr]",Flux enhancement (S.F. Control + 3% PerRx)/(S.F. control) [1] [X],"Skin flux, control + 3% PerRx [1] [μg/cm^2-hr]",Effect of addition of 3% PerRx on aqueous solubility [2]
"COc1ccc2c(c1)c(CC(=O)O)c(C)n2C(=O)c1ccc(Cl)cc1 [INDOM, indomethacin]",enhanced most,0.5,14,7.0,–
"O=[N+]([O-])O[C@@H]1CO[C@H]2[C@@H]1OC[C@@H]2O [ISMN, Isosorbide mono nitrate]",enhanced most,40,18,700,does not affect the aqueous solubility
"O=[N+]([O-])O[C@H]1CO[C@H]2[C@@H]1OC[C@H]2O[N+](=O)[O-] [ISDN, Isosorbide di nitrate]",–,20,2,40,–
